Results from patent US12435066B2, “Substituted tricyclic compounds” (LUPIN LIMITED, priority 2019, dated 2025).

Test system: pERK in DLD1 cells
Test: ERK phosphorylation assay after EGF stimulation
Format: cell-based
Conditions: Homo sapiens, DLD-1, compound 2 h, 200 ng/ml hEGF 5 minutes, alphascreen pERK, read-out: ERK phosphorylation inhibition IC50
Protocol: Example-128: ERK Phosphorylation Assay Protocol
Compounds were tested for their ability to inhibit pERK after EGF stimulation in DLD1 cells. Cells were seeded at 0.2 million cells per well in 96 well cell binding tissue culture plate in 100 μL complete media and were allowed to settle overnight (16 to 20 h). On the following day, cells were treated with various concentrations of test compounds for 2 h followed by stimulation with 200 ng/ml hEGF (diluted in PBS) for 5 minutes. Cells were then washed once with PBS and lysed in freshly prepared lysis buffer (provided with alphascreen surefire ERK1/2 p-T202/Y204 assay kit, cat no: TGRESB10K, Perkin Elmer). Lysis was carried out in plate shaker for 10-15 mins. Lysate was transferred to […] white opti-plate (Perkin Elmer) and alphascreen for pERK was carried out as per manufacturer's instructions. Plate was read after 2 h incubation in plate shaker at […] 300 RPM, 25-28° C.

Structure (SMILES) | IC50 [nM]
Cc1nc(N[C@H](C)c2cccc(C(F)(F)C(C)(C)O)c2F)c2cc(N3CCOCC3=O)c3c(c2n1)CCC3 [Compound 123, (R)-4-(4-((1-(3-(1,1-difluoro-2-hydroxy-2-methylpropyl)-2-fluorophenyl)ethyl)amino)-2-methyl-8,9-dihydro-7H-cyclopenta[h]quinazolin-6-yl)morpholin-3-one] | 201 to 500
Cc1nc(NC(C)c2cc(N)cc(C(F)F)c2)c2cc(N3CC4(COC4)C3)c3c(c2n1)CC(C)(C)O3 (racemic) [Compound 116, (R/S)—N-(1-(3-amino-5-(difluoromethyl)phenyl)ethyl)-2,8,8-trimethyl-6-(2-oxa-6-azaspiro[3.3]heptan-6-yl)-8,9-dihydrofuro[2,3-h]quinazolin-4-amine] | 1 to 200
COCC1CN(c2cc3c(N[C@H](C)c4cccc(C(F)(F)CO)c4F)nc(C)nc3c3c2CCC3)C1 [Compound 9, (R)-2,2-difluoro-2-(2-fluoro-3-(1-((6-(3-(methoxymethyl)azetidin-1-yl)-2-methyl-8,9-dihydro-7H-cyclopenta[h]quinazolin-4-yl)amino)ethyl)phenyl)ethan-1-ol] | 201 to 500
CC(=O)N1CC=C(c2cc3c(N[C@H](C)c4cc(N)cc(C(F)(F)F)c4)nc(C)nc3c3c2CCC3)CC1 [Compound 90, (R)-1-(4-(4-((1-(3-amino-5-(trifluoromethyl)phenyl)ethyl)amino)-2-methyl-8,9-dihydro-7H-cyclopenta[h]quinazolin-6-yl)-3,6-dihydropyridin-1(2H)-yl)ethan-1-one] | 1 to 200
Cc1nc(N[C@H](C)c2cccc(C(F)(F)CCO)c2F)c2cc(N3CC4(COC4)C3)c3c(c2n1)CCC3 [Compound 70, (R)-3,3-difluoro-3-(2-fluoro-3-(1-((2-methyl-6-(2-oxa-6-azaspiro[3.3]heptan-6-yl)-8,9-dihydro-7H-cyclopenta[h]quinazolin-4-yl)amino)ethyl)phenyl) propan-1-ol] | 1 to 200
Cc1nc(N[C@H](C)c2cc(N)cc(C(F)(F)F)c2)c2cc(C3CCN(C(=O)C4CC4)CC3)c3c(c2n1)CCC3 [Compound 100, (R)-(4-(4-((1-(3-amino-5-(trifluoromethyl)phenyl)ethyl)amino)-2-methyl-8,9-dihydro-7H-cyclopenta[h]quinazolin-6-yl)piperidin-1-yl)(cyclopropyl)methanone] | 201 to 500
Cc1nc(N[C@H](C)c2cccc(C(F)(F)CO)c2F)c2cc(N3CCO[C@@H](CO)C3)c3c(c2n1)CCC3 [Compound 86, 2,2-difluoro-2-(2-fluoro-3-((R)-1-((6-((R)-2-(hydroxymethyl)morpholino)-2-methyl-8,9-dihydro-7H-cyclopenta[h]quinazolin-4-yl)amino)ethyl)phenyl)ethan-1-ol] | 1 to 200
COC[C@H]1CN(c2cc3c(NC(C)c4cccc(C(F)(F)CO)c4C)nc(C)nc3c3c2CCC3)CCO1 (single isomer, unassigned) [Compound 42] | 1 to 200
Cc1nc(N[C@H](C)c2cc(N)cc(C(F)(F)F)c2)c2cc(N3CCC4(CCCO4)CC3)c3c(c2n1)CCC3 [Compound 13, (R)—N-(1-(3-amino-5-(trifluoromethyl)phenyl)ethyl)-2-methyl-6-(1-oxa-8-azaspiro[4.5]decan-8-yl)-8,9-dihydro-7H-cyclopenta[h]quinazolin-4-amine] | 1 to 200
Cc1nc(NC(C)c2cccc(C(F)(F)CO)c2C)c2cc(N3CC4(COC4)C3)c3c(c2n1)CCC3 (single isomer, unassigned) [Compound 41, 2,2-difluoro-2-(2-methyl-3-(1-((2-methyl-6-(2-oxa-6-azaspiro[3.3]heptan-6-yl)-8,9-dihydro-7H-cyclopenta[h]quinazolin-4-yl)amino)ethyl)phenyl)ethan-1-ol] | 1 to 200
Cc1nc(NC(C)c2cccc(C(C)(C)CO)c2)c2cc(N3CC4(COC4)C3)c3c(c2n1)CCC3 (single isomer, unassigned) [Compound 6, 2-methyl-2-(3-(1-((2-methyl-6-(2-oxa-6-azaspiro[3.3]heptan-6-yl)-8,9-dihydro-7H-cyclopenta[h]quinazolin-4-yl)amino)ethyl)phenyl)propan-1-ol] | 201 to 500
Cc1nc(N[C@H](C)c2cccc(C(F)(F)C(C)(C)O)c2F)c2cc(N3CC[C@](C)(O)C3)c3c(c2n1)CCC3 (single isomer, unassigned) [Compound 61b] | 201 to 500
CC(=O)N1CCC(c2cc3c(N[C@H](C)c4cc(N)cc(C(F)(F)F)c4)nc(C)nc3c3c2CCCC3)CC1 [Compound 105, (R)-1-(4-(4-((1-(3-amino-5-(trifluoromethyl)phenyl)ethyl)amino)-2-methyl-7,8,9,10-tetrahydrobenzo[h]quinazolin-6-yl)piperidin-1-yl)ethan-1-one] | 1 to 200
Cc1nc(N[C@H](C)c2cccc(C(F)(F)C(C)(C)O)c2F)c2cc(-c3ccc(=O)n(C)c3)c3c(c2n1)N(C)C(=O)C(C)(C)O3 [Compound 122, (R)-4-((1-(3-(1,1-difluoro-2-hydroxy-2-methylpropyl)-2-fluorophenyl)ethyl)amino)-2,8,8,10-tetramethyl-6-(1-methyl-6-oxo-1,6-dihydropyridin-3-yl)-8H-[1,4]oxazino[2,3-h]quinazolin-9(10H)-one] | 201 to 500
Cc1nc(N[C@H](C)c2cc(N)cc(C(F)(F)F)c2)c2cc(C3CCC(O)CC3)c3c(c2n1)CCC3 (stereo partly drawn) [Compound 125, (R)-4-(4-((1-(3-amino-5-(trifluoromethyl)phenyl)ethyl)amino)-2-methyl-8,9-dihydro-7H-cyclopenta[h]quinazolin-6-yl)cyclohexan-1-ol] | 1 to 200
Cc1nc(N[C@H](C)c2cccc(C(F)(F)CO)c2F)c2cc(N3CC[C@](C)(O)C3)c3c(c2n1)CCC3 (single isomer, unassigned) [Compound 67a] | 1 to 200
Cc1nc(N[C@H](C)c2cc(N)cc(C(F)(F)F)c2)c2cc(C3CCOCC3)c3c(c2n1)CCC3 [Compound 104, (R)—N-(1-(3-amino-5-(trifluoromethyl)phenyl)ethyl)-2-methyl-6-(tetrahydro-2H-pyran-4-yl)-8,9-dihydro-7H-cyclopenta[h]quinazolin-4-amine] | 201 to 500
Cc1nc(N[C@H](C)c2cccc(C(F)(F)C(C)(C)O)c2F)c2cc(N3CCNC(=O)C3)c3c(c2n1)CCC3 [Compound 66, (R)-4-(4-((1-(3-(1,1-difluoro-2-hydroxy-2-methylpropyl)-2-fluorophenyl)ethyl)amino)-2-methyl-8,9-dihydro-7H-cyclopenta[h]quinazolin-6-yl)piperazin-2-one] | 1 to 200
Cc1cc(N)cc(C(C)Nc2nc(C)nc3c4c(c(N5CCOCC5)cc23)CCC4)c1 (single isomer, unassigned) [Compound 80, N-(1-(3-amino-5-methylphenyl)ethyl)-2-methyl-6-morpholino-8,9-dihydro-7H-cyclopenta[h]quinazolin-4-amine] | 201 to 500
Cc1nc(NC(C)c2cccc(C(F)(F)F)c2F)c2cc(N3CC4(COC4)C3)c3c(c2n1)CCC3 (single isomer, unassigned) [Compound 34, N-(1-(2-fluoro-3-(trifluoromethyl)phenyl)ethyl)-2-methyl-6-(2-oxa-6-azaspiro[3.3]heptan-6-yl)-8,9-dihydro-7H-cyclopenta[h]quinazolin-4-amine] | 1 to 200
Cc1nc(N[C@H](C)c2cc(N)cc(C(F)(F)F)c2)c2cc(O[C@H]3CCOC3)c3c(c2n1)CC(C)O3 (mixture of isomers) [Compound 118a, (R/S)—N—((R)-1-(3-amino-5-(trifluoromethyl)phenyl)ethyl)-2,8-dimethyl-6-(((S)-tetrahydrofuran-3-yl)oxy)-8,9-dihydrofuro[2,3-h]quinazolin-4-amine] | 1 to 200
Cc1nc(N[C@H](C)c2cc(N)cc(C(F)(F)F)c2)c2cc(C3CCC(=O)CC3)c3c(c2n1)CCC3 [Compound 124, (R)-4-(4-((1-(3-amino-5-(trifluoromethyl)phenyl)ethyl)amino)-2-methyl-8,9-dihydro-7H-cyclopenta[h]quinazolin-6-yl)cyclohexan-1-one] | 201 to 500
COC[C@@H]1CN(c2cc3c(N[C@H](C)c4cc(N)cc(C(F)(F)F)c4)nc(C)nc3c3c2CCC3)CCO1 [Compound 32, N—((R)-1-(3-amino-5-(trifluoromethyl)phenyl)ethyl)-6-((S)-2-(methoxymethyl)morpholino)-2-methyl-8,9-dihydro-7H-cyclopenta[h]quinazolin-4-amine] | 201 to 500
Cc1nc(NC(C)c2cccc(C(=O)C(F)(F)F)c2)c2cc(N3CCOCC3)c3c(c2n1)CCC3 (racemic) [Compound 120, (R/S)-2,2,2-trifluoro-1-(3-(1-((2-methyl-6-morpholino-8,9-dihydro-7H-cyclopenta[h]quinazolin-4-yl)amino)ethyl)phenyl)ethan-1-one] | 201 to 500
CC(=O)N1CCC(c2cc3c(N[C@H](C)c4cc(N)cc(C(F)(F)F)c4)nc(C)nc3c3c2CCC3)CC1 [Compound 102, (R)-1-(4-(4-((1-(3-amino-5-(trifluoromethyl)phenyl)ethyl)amino)-2-methyl-8,9-dihydro-7H-cyclopenta[h]quinazolin-6-yl)piperidin-1-yl)ethan-1-one] | 1 to 200
